Laboratory results reported in US4645772A, “Levorotatory enantiomers of derivatives of 5,6,13,13a-tetrahydro-8H-dibenzo [A,G]quinolizine, preparative process, pharmaceutical compositions containing them and application” (Urpha, priority 1982, dated 1987).
Entries after “also recorded” stand apart in the source; their conditions may differ. Read-outs that look alike come from different tables or passages of the source.

Assays:
[1] = biological target: α1 adrenergic receptors; assay: Binding to α1 adrenergic receptors (3H-prazosin), rat cerebral cortex homogenate; conditions: for Ki: read-out: SPECIFIC BINDING, Kl, α 1, 3H-prazosin, average of three assays; for affinity for the α1 receptor with respect to the α2 receptor: in words, comparison of α1 and α2 binding
Procedure: (§1) The tests were carried out on rat cerebral cortex homogenate, according to the method described by P. Greengross and R. Bremmerclaus, Eur. J. Pharmacol. (1979) 55 323-326.
(§2) The results represent the average of the three assays. The Ki values were calculated according to Cheng and Prussoff (Biochem. Parmacol. 1973 22 3099-3108).

[2] = biological target: T1, α2 adrenergic receptors (Rattus norvegicus, UniProt P22909); assay: Binding to α2 adrenergic receptors (3H-yohimbin), rat cerebral cortex homogenate; conditions: for Ki: SPECIFIC BINDING, Kl, α 2, 3H-yohimbin, average of three assays
T1 construct: from tissue; host or cells: rat cerebral cortex homogenate
T1 sequence (P22909 1-465): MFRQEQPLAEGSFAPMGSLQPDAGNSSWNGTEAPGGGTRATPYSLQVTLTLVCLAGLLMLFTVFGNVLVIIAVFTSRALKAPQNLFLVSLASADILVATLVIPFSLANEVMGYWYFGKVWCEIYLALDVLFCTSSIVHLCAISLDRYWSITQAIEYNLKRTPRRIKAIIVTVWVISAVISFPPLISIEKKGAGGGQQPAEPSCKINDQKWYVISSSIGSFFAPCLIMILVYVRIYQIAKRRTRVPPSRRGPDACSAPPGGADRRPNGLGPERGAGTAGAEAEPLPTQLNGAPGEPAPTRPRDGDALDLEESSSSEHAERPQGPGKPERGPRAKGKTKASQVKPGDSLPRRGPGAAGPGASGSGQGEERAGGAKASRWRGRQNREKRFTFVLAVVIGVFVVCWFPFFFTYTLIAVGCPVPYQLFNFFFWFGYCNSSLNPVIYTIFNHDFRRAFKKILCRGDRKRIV
Procedure: as §1, §2

[3] = dog; cited from earlier work
[4] = cat; cited from earlier work
[5] = Toxicity in the mouse (LD50); conditions: in vivo, male mice
Procedure: The LD50 was determined in the mouse. The derivatives to be tested were administered in aqueous solution containing 7% dimethylformamide, by esophageal forced feeding of 0.4 ml per 20 g of body weight, to male mice weighing 20 to 25 g.

[6] = biological target: T2, α-adrenergic receptor / phenylephrine contraction of isolated rat aorta (Rattus norvegicus, UniProt P23944); assay: Antagonism of phenylephrine on the isolated rat aorta (α-blocking activity, Schild analysis); conditions: for r (correlation coefficient of the straight line): Schild's straight line; for r (correlation coefficient of the straight line) / n (slope of Schild's straight line) / Kb: against phenylephrine; for Kb: Schild's relation, read-out: pA2 (converted); for type of antagonism against phenylephrine / affinity for the adrenergic receptor: isolated rat aorta; for affinity for the adrenergic receptor: in words
T2 construct: phenylephrine on the isolated rat aorta; from tissue; host or cells: isolated rat aorta
T2 sequence (P23944 1-561): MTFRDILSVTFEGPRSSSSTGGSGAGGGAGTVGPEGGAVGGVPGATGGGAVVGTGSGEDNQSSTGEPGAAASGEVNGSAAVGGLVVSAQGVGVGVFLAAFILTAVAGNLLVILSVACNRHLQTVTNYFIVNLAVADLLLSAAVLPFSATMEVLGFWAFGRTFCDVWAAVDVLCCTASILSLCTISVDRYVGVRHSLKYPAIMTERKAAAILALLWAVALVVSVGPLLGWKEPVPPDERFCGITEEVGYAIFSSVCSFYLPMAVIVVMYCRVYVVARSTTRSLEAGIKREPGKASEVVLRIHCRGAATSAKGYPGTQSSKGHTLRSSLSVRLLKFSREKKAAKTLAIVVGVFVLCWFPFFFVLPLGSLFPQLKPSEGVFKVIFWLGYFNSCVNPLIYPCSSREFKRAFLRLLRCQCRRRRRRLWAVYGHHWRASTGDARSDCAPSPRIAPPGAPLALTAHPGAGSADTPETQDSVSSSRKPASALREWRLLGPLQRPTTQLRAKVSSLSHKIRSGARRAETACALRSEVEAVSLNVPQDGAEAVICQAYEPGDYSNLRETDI
Source text: (2) Study of α-blocking activity: study of the antagonism between the derivatives of Berbine and phenylephrine on the isolated rat aorta
The quantitative evaluation of the antagonism between the derivatives to be tested and phenylephrine was made by analysis to effect-concentration relationships in the presence and absence of antagonist and the PA2 values calculated with Schild's relation (Arunlasksha na O. and Schild H. P., Br. J. Pharmacol., 1959, 14, 48-58). […] In FIG. 2 the E effect (% of maximum contraction) in the absence and presence of STB 6 (-) is given in the ordinate, and the abscissa gives the log of the phenylephrine concentration. The different curves relate to the following concentrations:
FIG. 2b is the Schild representation (x being the ratio of phenylephrine concentrations which gives a 50% response in the presence and in the absence of STB 6 (-)). On the ordinate are Log (x-1) and on the abscissa Log [(-) STB 6].
The parameters of Schild's relation were also measured in the presence of STB 52 (-) in the same experimental conditions as for STB 6 (-).

[7] = system: hypertensive effects of adrenalin; conditions: dog; cited from earlier work
[8] = system: hypertensive patients; conditions: cited from earlier work
[9] = system: normotensive rat; assay: Hypotensive activity in the anesthetized normotensive rat; type: in vivo; conditions: for effect on blood pressure: 15 minutes after i.v. administration
Procedure: The study was carried out in the normotensive rat anesthetized with pentothal (40 mg.kg^-1 i.p.). The blood pressure was measured with a catheter placed in the carotid artery and linked to a pressure cell (Statham p 23 DB) and to a recorder according to the method described by Waeldele and Stoclet (J. Pharmacol. Paris 1973, 66, 357-366). The derivatives were administered in increasing doses every 15 minutes by intravenous injection (i.v.).
Each point is the average of the values obtained in n aminals ±standard error.
In FIG. 1 the abscissae show the quantities administered of the compound to be tested, and the ordinates show the average blood pressure ΔP mm Hg.

[10] = system: mesenteric territory, electrical stimulation of the sympathetic nerves; assay: Inhibition of sympathetic excitation in vivo: vasoconstriction of perfused mesenteric territory by electrical stimulation of sympathetic nerves; conditions: i.v. 0.5 mg.kg^-1; 7 Hz; rat
Procedure: (§3) This study was made for the most hypotensive derivative, STB 6. The vascular reactivity of the mesenteric territory perfused in situ in the rat was measured (according to Jackson and Campbell, Eur. J. Pharmacol., 1980, 66, 217-224). After anesthetizing of the rat with pentothal (40 mg.kg^-1 i.p.) the mesenteric territory was perfused at constant flow from a catheter diverting the blood stream of the abdominal aorta. The vasoconstrictor activity resulting from periarterial electrical excitation of the sympathetic nerves (7 Hz) and […] was measured. The activities of the Berbine derivatives administered intravenously were determined for the two types of pressure response. The results obtained are shown in FIGS. 4a and 4b in which the average blood pressure ΔP mm Hg is plotted on the ordinates and time plotted on the abscissae, the injection of the product to be tested or of the placebo (constituted by the same volume of physiological serum) being at time 0.
(§4) FIG. 4a relates to the vasoconstriction caused by electrical stimulation and FIG. 4b to that caused by noradrenalin.

[11] = system: mesenteric territory, noradrenalin; assay: Vasoconstriction of perfused mesenteric territory caused by noradrenalin; type: in vivo; conditions: i.v. 0.5 mg.kg^-1; noradrenalin 200 ng; rat
Procedure: as §3, §4

Compound: COC(=O)[C@@H]1[C@H]2C[C@H]3c4[nH]c5ccccc5c4CCN3C[C@@H]2CC[C@@H]1O [Yohimbin]
- Ki ([1]; rat cerebral cortex homogenate): 322 ± 26 nM

Compound: ^3 H-yohimbin [3H-yohimbin, reference compound]
- maximum binding, α2 receptors ([2]; radioligand): 172.5±49.9 fmoles.mg protein^-1
- Kd ([2]; read-out: KD of ligand, α2 receptors): 10.2 nM

Compound: c1ccc2c(c1)CC1c3ccccc3CCN1C2 (single isomer, unassigned) [Berbine (-), 5,6,13,13a-tetrahydro-8H-dibenzo[a,g]quinolizine]
- sympatholytic activity [3]: strong sympatholytic activity
- affinity for the α1 receptor with respect to the α2 receptor [1]: comparable affinities for the α1 and α2 receptors
- Ki ([1]; rat cerebral cortex homogenate): 212 ± 26 nM
- Ki [2]: 140 ± 44 nM
- sympatholytic activity [4]: strong sympatholytic activity

Compound: COc1cc2c(cc1OC)CN1CCc3cc(OC(=O)Cc4ccccc4)ccc3C1C2 (single isomer, unassigned; (-)) [(-) STB 52, 10,11-dimethoxy-3-phenacetyloxy-5,6,13,13a-tetrahydro-8H-dibenzo-[a,g]-quinolizine]
- LD50 ([5]; oral (esophageal forced feeding), 7% dimethylformamide in water): > 800 mg/kg
- mortality ([5]; oral, 800 mg.kg^-1 (limit of solubility)): 30%
- r (correlation coefficient of the straight line) [6]: 0.99
- n (slope of Schild's straight line) [6]: 1.00
- Kb [6]: 100 nM
- type of antagonism against phenylephrine [6]: as competitive an antagonist of phenylephrine as (-) STB 6
- affinity for the adrenergic receptor [6]: strong affinity for the adrenergic receptor

Compound: c1ccc2c(c1)CC1c3ccccc3CCN1C2 (stereo not shown) [Berbine, 5,6,13,13a-tetrahydro-8H-dibenzo[a,g]quinolizine]
- effect on hypertensive effects of adrenalin [7]: reverses the hypertensive effects of adrenalin
- hypotensive activity [8]: hypotensive activity

Compound: COc1cc2c(cc1OC)CN1CCc3cc(O)ccc3C1C2 (single isomer, unassigned; (+)) [(+) STB 6, 10,11-dimethoxy-3-hydroxy-5,6,13,13a-tetrahydro-8H-dibenzo-[a,g]-quinolizine]
- effect on blood pressure [9]: do not induce a significant decrease in blood pressure
- effect on vasoconstriction / pressure response caused by electrical stimulation of the sympathetic nerves [10]: does not have a significant activity; also recorded: devoid of this activity at the same doses
- Ki ([1]; rat cerebral cortex homogenate): 2930 ± 363 nM
- Ki [2]: 901 ± 299 nM
- type of antagonism against phenylephrine [6]: non-competitive antagonism against phenylephrine; also recorded: non-competitive antagonist of phenylephrine

Compound: c1ccc2c(c1)CC1c3ccccc3CCN1C2 (single isomer, unassigned) [Berbine (+), 5,6,13,13a-tetrahydro-8H-dibenzo[a,g]quinolizine]
- affinity for the α1 receptor with respect to the α2 receptor [1]: comparable affinities for the α1 and α2 receptors
- Ki ([1]; rat cerebral cortex homogenate): 4730 ± 538 nM
- Ki [2]: 569 ± 137 nM

Compound: Oc1ccc2c(c1)CCN1Cc3ccccc3CC21 (single isomer, unassigned; (-)) [(-) STB 4, 3-hydroxy-5,6,13,13a-tetrahydro-8H-dibenzo-[a,g]-quinolizine]
- effect on blood pressure [9]: significant drop in blood pressure
- dose at which active on blood pressure ([9]; i.v.): 1 mg/kg
- Ki ([1]; rat cerebral cortex homogenate): 462 ± 10 nM
- Ki [2]: 307 ± 118 nM

Compound: COc1cc2c(cc1OC)CN1CCc3cc(O)ccc3C1C2 (single isomer, unassigned; (-)) [(-) STB 6, 10,11-dimethoxy-3-hydroxy-5,6,13,13a-tetrahydro-8H-dibenzo-[a,g]-quinolizine]
- effect on blood pressure [9]: significant drop in blood pressure
- dose at which active on blood pressure ([9]; i.v.): 1 mg/kg
- hypotensive activity, rank among the derivatives studied ([9]; i.v.): the most hypotensive of the derivatives studied
- effect on pressure response due to noradrenalin injection [11]: without modifying the pressure response due to noradrenalin injection
- effect on vasoconstriction / pressure response caused by electrical stimulation of the sympathetic nerves [10]: decreases the vasoconstriction of the mesenteric territory caused by the electrical stimulation of the sympathetic nerves; also recorded: reduces the pressure response to sympathetic excitation
- affinity for the α1 receptor with respect to the α2 receptor [1]: strong affinity for the α1 receptor, with respect to that for the α2 receptor
- Ki ([1]; rat cerebral cortex homogenate): 419 ± 132 nM
- Ki [2]: 1020 ± 335 nM
- r (correlation coefficient of the straight line) [6]: 0.99
- n (slope of Schild's straight line) [6]: 0.93
- Kb [6]: 39.8 nM
- type of antagonism against phenylephrine [6]: competitive
- affinity for the adrenergic receptor [6]: strong affinity for the adrenergic receptor

Compound: COc1cc2nc(N3CCN(C(=O)c4ccco4)CC3)nc(N)c2cc1OC [3H-prazosin, ^3 H-prazosin]
- maximum binding, α1 receptors ([1]; radioligand, rat cerebral cortex homogenate): 200±21 fmoles.mg protein^-1

Compound: Oc1ccc2c(c1)CCN1Cc3ccccc3CC21 (single isomer, unassigned; (+)) [(+) STB 4, 3-hydroxy-5,6,13,13a-tetrahydro-8H-dibenzo-[a,g]-quinolizine]
- effect on blood pressure [9]: do not induce a significant decrease in blood pressure
- Ki ([1]; rat cerebral cortex homogenate): 1220 ± 175 nM
- Ki [2]: 321 ± 72 nM
